# Source: paper PMC3985639, “A widespread bacteriophage abortive infection system functions through a Type IV toxin–antitoxin mechanism” (Nucleic Acids Research, 2014)
# Target: T1, AbiEii (AbiEii-His6) (Streptococcus agalactiae, UniProt Q8DZ35)
# T1 construct: gene abiGII; full-length, C-terminal His6 tag kept, from pRLD56 in E. coli BL21 co-expressing AbiEi (pRLD69), Ni-NTA purified
# T1 sequence (Q8DZ35 1-281): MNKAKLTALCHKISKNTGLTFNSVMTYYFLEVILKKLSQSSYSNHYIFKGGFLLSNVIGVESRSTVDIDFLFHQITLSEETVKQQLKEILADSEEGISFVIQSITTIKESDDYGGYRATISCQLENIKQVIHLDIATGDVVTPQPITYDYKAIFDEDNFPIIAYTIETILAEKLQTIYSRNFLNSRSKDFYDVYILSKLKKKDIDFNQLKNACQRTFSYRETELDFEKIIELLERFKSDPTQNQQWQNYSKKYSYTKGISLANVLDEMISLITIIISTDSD
# Test: native PAGE gel shift of [α-32P]-NTP
# Format: binding
# Conditions: labelled compound; 0.65 pmol; 10 mM Tris-HCl, […] MgCl2, 50 mM KCl, pH 8.3, 37 °C, 1 h
row,Structure (SMILES),native PAGE gel shift of [α-32P]-NTP
1,Nc1nc2c(ncn2[C@@H]2O[C@H](COP(=O)(O)OP(=O)(O)OP(=O)(O)O)[C@@H](O)[C@H]2O)c(=O)[nH]1 [GTP],"Increasing AbiEii-His6 concentrations led to retardation in GTP migration, demonstrating GTP binding"
2,Nc1ncnc2c1ncn2[C@@H]1O[C@H](COP(=O)(O)OP(=O)(O)OP(=O)(O)O)[C@@H](O)[C@H]1O [ATP],Limited binding to ATP was also observed
